Test results from patent US10829441B2, “Reactive oxygen species-sensitive nitric oxide synthase inhibitors for the treatment of ischemic stroke” (The University of Toledo, priority 2017, dated 2020).
Several values for one entry are separate records, joined by “and”; a condition that tells them apart may be missing. Equal entries are not always repeated. Entries after “also recorded” stand apart in the source; their conditions may differ. Blank lines part the entries; values can stand above or below the molecule they belong to.

Tests used:
[1] = system: LPS-stimulated SIM-A9 cells; experiment: Griess assay of nitrite in LPS-stimulated SIM-A9 microglia; format: cell-based, mouse; settings: LPS 100 ng/mL; for nitrite / NO production after LPS (in words): 1.0 μM to 50 μM, 24 hr (FIG. 14); for decrease in nitrite: 24 hr; for nitrite after LPS (in words): 24 hr (FIG. 15B)
Description: (§1) Human neuroblastoma SH-SY5Y cells and SIM-A9 mouse microglia (ATCC) were separately cultured on poly-D-lysine coated plates in 1:1 Dulbecco's Modified Eagle Medium/Ham's F12 (DMEM/F12) medium containing 5% fetal bovine serum, 5% horse serum, and penicillin-streptomycin. Cultures were stored in a 37° C. incubator with a 5% CO2 atmosphere. Cells were allowed to adhere overnight prior to subjection to experimental systems. 1×10^6 cells SH-SY5Y cells on 96-well plates were used for OGD experiments, and SIM-A9 cells were plated at a density of 1×10^6 on 24-well plates for Griess experiments.
SIM-A9 cells were treated with 100 ng/mL lipopolysaccharide (LPS, Sigma) along with vehicle or drug treatment for 24 hr. Conditioned medium was then diluted 1:1 with griess reagent (0.4% naphthylethylenediamine dihydro-chloride, and 4% sulphanilamide in 10% phosphoric acid), and analyzed by colorimetry at 540 nm after […]. Nitrite levels were reported as a ratio to LPS-treated, vehicle control.

SH-SY5Y cells [2] = experiment: OGD-induced formation of 6 from 5 in SH-SY5Y cells by LC-MS/MS; format: cell-based, Human; settings: for level of 6 as 6:5 AUC: cell lysate (intracellular); for level of 6: supernatant
Description: (§2) Growth medium was removed from SH-SY5Y cells and replaced with sterile HBSS (140 mM NaCl, 3.5 mM KCl, 0.4 mM KH2PO4, 5 mM NaHCO3, 1.3 mM CaCl2, 1.2 mM MgSO4, 20 mM HEPES, pH 7.4, bubbled with 95%/5% N2/CO2), and placed in an air-tight container subsequently purged three times with 95%/5% N2/CO2. The container was then placed in a 37° C. incubator for 1.5 hr. After OGD, the cells were returned to a normoxic environment, and medium was replaced with growth medium and vehicle or treatment for 24 hr to simulate reperfusion. Sham cells were left in growth medium under a normoxic environment. Viability was measured by adding 10% Presto-Blue® Cell Viability Reagent (Thermo Fisher) for 30 min, and reading fluorescence at 560 nm/590 nm excitation/emission. Viability is reported as a ratio to vehicle-treated control, and readings result from separate OGD experiments (e.g. n=6 was from 6 different OGD assays). The experimental furoxan IS-1-41 was used as a positive control for OGD viability due to its reproducible protection in this paradigm.
(§3) Synthesized 5, and purchased 4(1H-Imidazol-1-yl)benzaldehyde (IBA, Sigma) were used to determine LC-MS/MS fragmentation. A solution of 5+ONOO^−/HCl from EPR studies was used for 6 fragmentation. MRM analysis of IBA (m/z 173.10→91.10, 104.10, 117.05; RT: 4.13 min), 5 (m/z 248.20→148.00, 134.15, 190.05; RT: 4.81 min), and 6 (m/z 177.00→119.10, 90.95, 65.15; RT: 3.87 min) were determined. A standard curve for 5 was generated using pure samples applied to blank matrix (0.01 μM, 0.1 μM, 0.5 μM, 1.0 μM, and 5.0 μM; R2=0.99) using the above HPLC solvents and LC curve at 0.4 mL/min.
(§4) In vitro supernatant samples were spiked with internal standard (200 μL 500 nM IBA in 2% FA) and used as collected, while cells were detached by trypsin, centrifuged (14 k rpm, 5 min, 4° C.) to isolate the pellet, then lysed by sonication (Sonic Dismembrator 500, Fisher) in 1 mL cold PBS+internal standard. Blood samples (100 μL) were spiked with internal standard, and centrifuged to collect the supernatant. Brain samples were weighed, homogenized by a Bullet Blender Storm (Next Advance Inc.) in 500 μL cold PBS+internal standard for 1 min at 4° C., then centrifuged to collect the supernatant. All samples were then worked up by solid phase extraction (Evolute Ex-press ABN cartridge, 30 mg/l mL, Biotage) using a Vac-master manifold (Biotage). Columns were washed with dH2O (1 mL), and analytes were eluted with MeOH (1 mL) and evaporated to dryness by high flow air purge. Samples were reconstituted in 200 μL 95:5 mobile phase A:B and analyzed by LC-MS/MS (2.0 μL injection volume). All samples were run in duplicate, and AUC for 5 and 6 were normalized to the intra-run IBA AUC to account for loss during workup. 5 concentrations were determined using std. curve, while 6 was expressed as a percentage of 5 AUC.

[3] = Plasma and brain levels of 5 and 6 by LC-MS/MS 25 min after intravenous administration; format: in vivo, C57BL/6 mice
Description: (§5) Animals were anesthetized and the incision was performed as above to expose the temporal bone, through which the MCA was visible. The end of a fiber optic cable fitted to a MoorVMS-LDF Laser Doppler Monitor (Moor Instruments) was positioned in place over the MCA. The baseline CBF as flux was monitored for 5 min prior to intravenous injection by lateral tail vein of normal saline vehicle, […] (20 mg/kg), or 5. Measurements were taken every 5 minutes in triplicate for each animal, and reported as ratio to baseline. Animals were sacrificed at 25 min by CO2 inhalation, blood was collected into K2EDTA coated tubes (BD Microtainer®), and brains were rapidly dissected out and frozen on dry ice for LC-MS/MS analysis.
as §3, §4

[4] = system: cerebral blood flow (CBF); experiment: Laser Doppler cerebral blood flow (CBF) over the MCA of anesthetized mice; format: in vivo, C57BL/6 mice; settings: for time point at which CBF increased: isoamyl nitrate vs low dose of 5 (1 mg/kg), intravenous
Description: as §5

SH-SY5Y cells [5] = experiment: Oxygen-glucose deprivation (OGD) viability of SH-SY5Y cells (PrestoBlue); format: cell-based, Human; settings: for viability, ratio to vehicle control / viability relative to vehicle (in words): 1.5 hr OGD, 24 hr treatment
Description: as §1, §2

[6] = system: phospho-Akt/total Akt ratio; experiment: Western blot of SH-SY5Y cells exposed to OGD: pAkt/Akt; format: cell-based, Human; settings: 1.0 μM, 24 hr treatment
3-Nitrotyrosine (3-NT) = experiment: Western blot of SH-SY5Y cells exposed to OGD: 3-nitrotyrosine; format: cell-based, Human; settings: 1.0 μM, 24 hr treatment, vs vehicle
cleaved caspase-3 = experiment: Western blot of SH-SY5Y cells exposed to OGD: cleaved caspase-3; format: cell-based, Human; settings: 1.0 μM, 24 hr treatment, vs vehicle
[7] = system: permanent MCA occlusion (pMCAO); format: in vivo
[8] = HPLC-PDA analysis of nitrone decomposition in radical-generating systems; format: physicochemical; settings: for decomposition to aldehyde in .OH (Fe—H2O2) system (in words) / decomposition to aldehyde in O2.^−/HO2. (KO2) system (in words) / decomposition to aldehyde in ONOO^−/HCl system (in words): 24 hr incubation at 37° C.
Description: To a stirring solution of 5 (5.0 mg, 1.0 eq) in 785 μL PBS was added 20 μL 6 N HCl at 37° C. Peroxynitrite (200 μL of a 50 mM solution in 0.3 M NaOH, 0.5 eq) was added in 50 μL aliquots over 5 min. The reaction was allowed to stir for 1 hr and monitored by HPLC-PDA. The solution was extracted with CH2Cl2 (2×0.5 mL) and the aqueous fractions were pooled then lyophilized. Addition of ACN (1.0 mL) to the white solid followed by filtration allowed separation from the insoluble salts. Lyophilization afforded 6 as a white solid (1.2 mg, 33.7%), NMR (CD3OD, 400 MHz): δ 10.04 (1H, s), δ 7.93-7.95 (2H, m), δ 7.71-7.65 (2H, m), 4.58 (2H, s), δ 2.30 (3H, s).
EPR spectra were collected at ambient temperature with microwave power 12.6 mW, frequency 9.86 GHz, receiver gain 1.0×10^5 or 1.0×10^4, modulation amplitude 1 G, scan time 20.48 sec, time constant 40.96 msec, and sweep width 120 G. Phosphate buffered saline (PBS) used for EPR was supplemented with diethylenetriaminepent-acetic acid (DTPA, 100 μM). ROS-generating solutions were rapidly added to solutions of indicated spin trap and taken up in 50 μL glass capillary tubes for EPR spectral acquisition. For HPLC-PDA analysis, solutions were allowed to incubate for 24 hr at 37° C., then diluted 1:1000 in 95:5 mobile phase A:B, and analyzed as above. Benzaldehyde (Sigma) was run separately as a control to compare to PBN-ROS systems and confirm PBN decomposition.
A 50 μL final 20% PBS/DMSO solution of 35 mM 5 or PBN contained 10 μL saturated KO2 DMSO.
A 50 μL final 30% PBS/DMSO solution of 35 mM 5 or PBN contained 90 mM FeSO4 and 1% H2O2.
A solution of ONOO^− in 0.3 M NaOH (Cayman Chemical) was determined to be 50 mM by absorbance at 302 nm using the literature extinction coefficient (1670 M^−1cm^−1). A 50 μL final 30% PBS/DMSO solution of 5 or PBN contained 10 mM ONOO^− at pH˜6 (HCl).

[9] = 25 min after intravenous 5, n=6

Structure (SMILES): CC(=N)NCc1cccc(C=O)c1 [compound 6, N-[(3-formylphenyl)methyl]ethanimidamide]
nitrite / NO production after LPS (in words) [1]: dose-dependent decrease in nitrite | decrease in nitrite ([1]; 1.0 μM): ~19% | decrease in nitrite ([1]; 50 μM): −33% | level of 6 as 6:5 AUC (SH-SY5Y cells [2]; OGD-exposed cells treated 24 hr with 10 μM 5): 129 % 6:5 AUC | level of 6 as 6:5 AUC (SH-SY5Y cells [2]; sham cells treated 24 hr with 10 μM 5): 29 % 6:5 AUC | level of 6 (SH-SY5Y cells [2]; OGD-exposed cells treated with 5): 18.6 % of 5 AUC | level of 6 (SH-SY5Y cells [2]; sham cells treated with 5): 7.88 % of 5 AUC | level of 6 in brain [3, 9]: 24.5%±0.1% | level of 6 in plasma [3, 9]: 12.7%±0.2%

Structure (SMILES): CC(C)CCO[N+](=O)[O-] [isoamyl nitrate, reference compound]
CBF over 20 min ([4]; 20 mg/kg intravenous): 111%±4.0% | time point at which CBF increased [4]: 20 min

Structure (SMILES): CC(=N)NCc1cccc(CN)c1 [1400W, reference compound]
nitrite / NO production after LPS (in words) [1]: anti-inflammatory ability | nitrite after LPS (in words) ([1]; 1.0 μM): attenuated

Structure (SMILES): CC(=N)NCc1cccc(/C=[N+](\[O-])C(C)(C)C)c1 [compound 5, N-tert-butyl-α-(3-[ethanimidamidomethyl]phenyl)nitrone]
viability, ratio to vehicle control (SH-SY5Y cells [5]; 0.1 μM): 1.21 times greater than vehicle | viability, ratio to vehicle control (SH-SY5Y cells [5]; 1.0 μM): 2.57 times greater than vehicle | viability relative to vehicle (in words) (SH-SY5Y cells [5]; 100 μM): decline to baseline; also recorded: not observed to be toxic, but rather non-neuroprotective | optimal dose (highest neuroprotection) (SH-SY5Y cells [5]; dose-finding study 0.05 μM to 100 μM): 1.0 µM | phospho-Akt/total Akt ratio ([6]; vs vehicle): 4.1 times higher | 3-NT ameliorated (3-Nitrotyrosine (3-NT)): 48% | cleaved caspase-3 reduction (cleaved caspase-3): 47% | nitrite / NO production after LPS (in words) [1]: not observed to lower NO production | nitrite after LPS (in words) ([1]; 1.0 μM): attenuated | cell permeability (in words) (SH-SY5Y cells [2]): cell permeable | CBF over 20 min ([4]; 1 mg/kg intravenous): 126%±4.6% | CBF over 20 min ([4]; 10 mg/kg intravenous): 102%±0.7% | time point at which CBF increased [4]: 5 min | Kp at 25 min ([3]; C57BL/6, mouse, in vivo): 0.029 ± 0.01 | half-life (in words) ([3]; mouse, in vivo): short half-life | tolerability / adverse effects ([7]; 10 mg/kg and 1 mg/kg intravenous): well tolerated | forelimb grip strength (in words) ([7]; 24, 48, 72 hr after pMCAO): improved grip strength | rota rod performance (in words) ([7]; 24, 48, 72 hr after pMCAO): No significant differences | Neurological deficit scoring (NDS), 28-point system ([7]; 72 hr after pMCAO, 10 mg/kg iv at 3 and 6 hr, then 1 mg/kg twice daily): 4.2±0.4 | decrease in infarct volume compared to vehicle ([7]; TTC staining 72 hr after pMCAO, 10 mg/kg iv at 3 and 6 hr, then 1 mg/kg twice daily): > 30% and 37% | conversion of 5 to 6 by HPLC-PDA ([8]; 0.50 eq ONOO^−, PBS/HCl pH 6, 37° C., after one hour): 95.4% | decomposition to aldehyde in .OH (Fe—H2O2) system (in words) [8]: substantial formation of 6; also recorded: Minor 6 formation | decomposition to aldehyde in O2.^−/HO2. (KO2) system (in words) [8]: substantial formation of 6; also recorded: significant 6 formation | decomposition to aldehyde in ONOO^−/HCl system (in words) [8]: complete conversion; also recorded: no observed 5 remaining

decomposition to aldehyde in .OH (Fe—H2O2) system (in words) [8]: minor formation | decomposition to aldehyde in O2.^−/HO2. (KO2) system (in words) [8]: Significant BnA formation | decomposition to aldehyde in ONOO^−/HCl system (in words) [8]: Significant BnA formation
Structure (SMILES): CC(C)(C)[N+]([O-])=Cc1ccccc1 [PBN, N-tert-butyl-α-phenylnitrone, reference compound]
viability relative to vehicle (in words) (SH-SY5Y cells [5]; 0.05 μM to 100 μM): did not approach significance at any concentration tested | phospho-Akt/total Akt ratio (in words) [6]: increase was also observed; also recorded: increase in Akt phosphorylation, although not significant | nitrite / NO production after LPS (in words) [1]: not observed to cause a reduction in nitrate | nitrite after LPS (in words) ([1]; 1.0 μM): attenuated
